The record followed here is patent US6703370B1, “Use of ribose to treat fibromyalgia” (Bioenergy, Inc., priority 1999, dated 2004).

Common to all, as to format: in vivo, human
One test has as its system fibromyalgia patient. As to the kind of experiment: Alleviation of symptoms in a fibromyalgia patient (single case, oral ribose). An excerpt:
A patient diagnosed with fibromyalgia had been experiencing extreme muscle pain and fatigue as well as irritable bowel syndrome, disturbed sleep, and cognitive dysfunction. They had been told by their physician that they were in the worst stage of the condition and could end up in a wheel chair within a year. They began taking ribose, one teaspoonful (about 5 grams), 4 times per day. […] They continued taking it for a week then decided to observe the effects of stopping the doses of ribose, so they discontinued the protocol for one week. […] They stated that “It is without a doubt the best product I have ever been on.”

For another test, the system named is fibromyalgia subjects. As to the kind of experiment: Pilot study on the effect of ribose in alleviating the symptoms of fibromyalgia (SF-36 health status profile and subject reports). An excerpt: Four women subjects ranging in age from 45 to 55 were given ribose and instructed to take at least 20 grams per day, preferably divided in four doses. The recommended mode of administration was one heaping teaspoon, about five to seven grams, mixed in six to eight ounces of water, taken preferably with meals and before planned activity. Subjects were encouraged to vary the dosage according to their perceived needs. Each subject was given a health status profile (SF-36) to complete. The profile was to be filled out both before and after four weeks of ribose administration. Two of the subjects complied with filling out the profile.
Health Status Profile (SF-36):
1) General health compared to one year ago: 1=much better, 2=somewhat better, 3=about the same, 4=somewhat worse, 5=much worse
2) Energy, 2 questions, from peppy all of the time to none of the time.
3) Activities, 12 examples from vigorous to mild, scored as: limited a lot, limited a little, not limited
4) Pain: 1=none, 2=very mild, 3=mild, 4=moderate, 5=severe, 6 =very severe The results of each subject's before and after ratings are summarized in Table I.

The test system of another test is fibromyalgia patients. The experiment in a line: Applicants' general finding on steady ingestion of ribose. To be noted: steady ingestion two to four times per day over the course of a week. An excerpt:
Continued ingestion leads to greater improvement, in turn allowing the patient to endure the much needed regular exercise to further relieve the painful symptoms.

The test system of test [1] is patients with fibromyalgia (FM). The experiment in a line: Planned double-blind crossover study of oral ribose in fibromyalgia. To be noted: 16 patients planned, 20 gm per day (10 gm bid), 4 weeks, crossover against dextrose placebo. An excerpt: Following the informal studies in five subjects, a protocol was written to determine whether oral ribose administration in patients with fibromyalgia (FM) can reduce symptoms of fatigue and pain and improve the subjects' quality of life. The study endpoints will be: (1) the patient's visual analog (PVA) scale for pain, (2) the patient's analog scale for fatigue, (3) the physician's global assessment (GAphs), (4) the patient's global assessment (GAPT), (5) the Western Ontario MacMaster Questionaire (WOMAC) index, (6) SF-36 quality of life form, (7) the patient's's daily activity/events log and (8) the number of days to study discontinuation, if the patient chooses to do so, based upon his/her improved condition. The study will include 16 patients with a confirmed diagnosis of FM using a double-blind crossover design. All patients who meet entrance or screening criteria will be randomly assigned to either treatment #1 (oral dextrose as a placebo) or treatment #2 (oral ribose) at a dose of 20 gm per day (10 gm bid), as a first treatment modality. Both physician and patient will be blinded to the treatment modality. Informed consent will be obtained prior to enrolment. […] All endpoint parameters will be assessed at baseline prior to treatment, after 4 weeks of treatment one, at the end of the workout period, and again following 4 weeks of treatment 2 (“crossover” treatment modality). […]

Setting [2] is: after resuming, one teaspoonful 4 times per day, after 4 weeks.

On to `O=C[C@H](O)[C@H](O)[C@H](O)CO` [ribose, D-ribose], for which, in the test with fibromyalgia patient (setting [2]), the “Irritable painful bowel syndrome” value was “improved their irritable painful bowel syndrome”; the “Pain, fatigue and morning stiffness” value is “alleviated their pain, fatigue and morning stiffness”. The “Energy and flare ups of muscle soreness” value with fibromyalgia patient (patient, about 5 grams 4 times per day, first week) was “more energy and fewer flare ups of muscle soreness”. For the same molecule, in the test on fibromyalgia patient (patient, about 5 grams 4 times per day, oral), the “Symptoms on starting ribose” value is listed as “immediate improvement in their symptoms”. Also, in the test on fibromyalgia patient (protocol discontinued for one week), the “Symptoms after discontinuing ribose” value was “symptoms returned to their previous level”. The “General health compared to last year, after” value in the test with fibromyalgia subjects (Subject #1, 45-54, fibromyalgia for 15 years, after four weeks of ribose, at least 20 grams per day, before: much worse, after cell wraps r10-r11: somewhat better) is recorded as “somewhat”. Also, in the test with fibromyalgia subjects (Subject #1, after four weeks of ribose, before: 8 of 12 limited a lot), the “Activities (12 total) limited a lot, after” value is 1 of 12 limited a. For the same molecule, in the test on fibromyalgia subjects (Subject #1, after four weeks of ribose, before: little of the time, after cell wraps r11-r12: all of the time), the “Energy, after” value is given as “all of the”. Besides, the “Pain, after” value in the test with fibromyalgia subjects (Subject #1, after four weeks of ribose, before: very severe) is listed as “moderate”. Besides, the “General health compared to last year, after” value in the test with fibromyalgia subjects (Subject #2, 50-55, fibromyalgia for several years, after four weeks of ribose, before: somewhat better) is “much better”. Moreover, the “Activities (12 total) limited, after” value with fibromyalgia subjects (Subject #2, after four weeks of ribose, before: 2 of 12 limited a lot) is on record as 0 of 12 limited. Further, the “Energy, after” value in the test on fibromyalgia subjects (Subject #2, after four weeks of ribose, before: none of the time, after cell wraps r16-r17: some of the time) was “some of the”. In addition, the “Pain, after” value in the test on fibromyalgia subjects (Subject #2, after four weeks of ribose, before: severe) is given as “moderate”. Moreover, in the test with fibromyalgia subjects (Subject #3), the Energy result is on record as “more energetic”, the “Energy after cessation of administration” value is reported as “next-day loss of energy” and the “Severe pain at the tender points” value is given as “did not feel a decrease in severe pain at the tender points”. The “Fatigue level and achiness” value in the test with fibromyalgia subjects (Subject #3, compliant with protocol, no profile) was “improvement in their fatigue level and less achiness”. Also, the “Energy when ribose is taken on feeling exhausted” value in the test with fibromyalgia subjects (Subject #4, did not follow the protocol) is listed as “feel more energetic”. Further, the “Energy and aching after suspending ribose administration” value in the test with fibromyalgia subjects (Subjects #1 and #2, on suspending ribose) was “drop in energy and increase in aching within a day”. Further, in the test with fibromyalgia subjects (all subjects of the pilot study), the “Overall relief from symptoms of fibromyalgia” value is listed as “all reported some alleviation”. The “Fatigue, achiness, pain, energy and irritable bowel syndrome” value with fibromyalgia patients was “noticeable improvement in the level of fatigue, achiness, pain, and energy, and alleviation of irritable bowel syndrome”. The “Expected alleviation of achiness, fatigue and/or pain at the tender points” value in test [1] was “most of the patients will experience some alleviation of achiness, fatigue and/or pain at the tender points”.
